“And” between values parts separate entries of the source, which are not always exact repeats. Identical values can stand only once.
Conditions: Fluid (supercritical or subcritical phases); for viscosity: vibrating wire; for mass density: Buoyancy - hydrostatic balance with magnetic suspension - one sinker

CC [ethane]
Conditions | mass density | viscosity
307.15 K, 29063 kPa | – | 0.07227 mPa·s
307.15 K, 29978 kPa | 436.186 kg/m3 and 436.185 kg/m3 | 0.07317 mPa·s and 0.07325 mPa·s
307.15 K, 29979 kPa | 436.187 kg/m3 | 0.07323 mPa·s
307.15 K, 29980 kPa | 436.189 kg/m3 | 0.07314 mPa·s and 0.07319 mPa·s
423.15 K, 95.75 kPa | 0.82018 kg/m3 | 0.01277 mPa·s
423.15 K, 95.83 kPa | 0.82091 kg/m3 | 0.01276 mPa·s
423.15 K, 117.47 kPa | 1.0068 kg/m3 | 0.01277 mPa·s
423.15 K, 117.64 kPa | 1.0082 kg/m3 | 0.01277 mPa·s
423.15 K, 117.73 kPa | 1.009 kg/m3 | 0.01277 mPa·s
423.15 K, 226.59 kPa | 1.947 kg/m3 | 0.0128 mPa·s
423.15 K, 226.76 kPa | 1.9485 kg/m3 | 0.0128 mPa·s
423.15 K, 459.37 kPa | 3.9693 kg/m3 | 0.01284 mPa·s
423.15 K, 459.46 kPa | 3.9701 kg/m3 | 0.01284 mPa·s
423.15 K, 691.62 kPa | 6.0097 kg/m3 | 0.0129 mPa·s
423.15 K, 691.95 kPa | 6.0126 kg/m3 | 0.01289 mPa·s
423.15 K, 915.95 kPa | 8.0024 kg/m3 | 0.01294 mPa·s
423.15 K, 916.03 kPa | 8.0031 kg/m3 | 0.01294 mPa·s
423.15 K, 1136.5 kPa | 9.9828 kg/m3 | 0.01298 mPa·s
423.15 K, 1136.7 kPa | 9.9843 kg/m3 | 0.01298 mPa·s
423.15 K, 1357.6 kPa | 11.99 kg/m3 | 0.01303 mPa·s
423.15 K, 1357.9 kPa | 11.993 kg/m3 | 0.01303 mPa·s
423.15 K, 1576.5 kPa | 13.999 kg/m3 | 0.01306 mPa·s and 0.01307 mPa·s
423.15 K, 1794.4 kPa | 16.02 kg/m3 | 0.01312 mPa·s
423.15 K, 1795 kPa | 16.025 kg/m3 | 0.01311 mPa·s
423.15 K, 2007.1 kPa | 18.014 kg/m3 | 0.01317 mPa·s
423.15 K, 2007.2 kPa | 18.015 kg/m3 | 0.01317 mPa·s
423.15 K, 2209.1 kPa | 19.928 kg/m3 | 0.01322 mPa·s
423.15 K, 2209.2 kPa | 19.929 kg/m3 | 0.01322 mPa·s
423.15 K, 3243 kPa | 30.033 kg/m3 | 0.01352 mPa·s
423.15 K, 3244.5 kPa | 30.048 kg/m3 | 0.01351 mPa·s
423.15 K, 4164.4 kPa | 39.494 kg/m3 | 0.01382 mPa·s
423.15 K, 4164.5 kPa | 39.495 kg/m3 | 0.01382 mPa·s
423.15 K, 4551.5 kPa | 43.602 kg/m3 | 0.01395 mPa·s
423.15 K, 4555.3 kPa | 43.642 kg/m3 | 0.01396 mPa·s
423.15 K, 5910.6 kPa | 58.665 kg/m3 | 0.01454 mPa·s
423.15 K, 5914.3 kPa | 58.707 kg/m3 | 0.01455 mPa·s
423.15 K, 6746.2 kPa | 68.424 kg/m3 | 0.01497 mPa·s
423.15 K, 6746.9 kPa | 68.432 kg/m3 | 0.01497 mPa·s
423.15 K, 7528 kPa | 77.889 kg/m3 | 0.01542 mPa·s
423.15 K, 7530.1 kPa | 77.915 kg/m3 | 0.01542 mPa·s
423.15 K, 8298.5 kPa | 87.517 kg/m3 | 0.0159 mPa·s
423.15 K, 8300.8 kPa | 87.546 kg/m3 | 0.0159 mPa·s
423.15 K, 9235.9 kPa | 99.586 kg/m3 | 0.01656 mPa·s
423.15 K, 9238.5 kPa | 99.621 kg/m3 | 0.01656 mPa·s
423.15 K, 10732 kPa | 119.465 kg/m3 | 0.01774 mPa·s
423.15 K, 10733 kPa | 119.476 kg/m3 | 0.01775 mPa·s
423.15 K, 12215 kPa | 139.509 kg/m3 | 0.0191 mPa·s
423.15 K, 12218 kPa | 139.549 kg/m3 | 0.01909 mPa·s
423.15 K, 13727 kPa | 159.706 kg/m3 | 0.02062 mPa·s
423.15 K, 13728 kPa | 159.722 kg/m3 | 0.02062 mPa·s
423.15 K, 15325 kPa | 180.142 kg/m3 | 0.02234 mPa·s
423.15 K, 15327 kPa | 180.168 kg/m3 | 0.02234 mPa·s
423.15 K, 16990 kPa | 199.904 kg/m3 | 0.0242 mPa·s
423.15 K, 16991 kPa | 199.911 kg/m3 | 0.02421 mPa·s
423.15 K, 16992 kPa | 199.925 kg/m3 | 0.0242 mPa·s
423.15 K, 18872 kPa | 220.003 kg/m3 | 0.02632 mPa·s
423.15 K, 18874 kPa | 220.02 kg/m3 | 0.02632 mPa·s
423.15 K, 18878 kPa | 220.065 kg/m3 | 0.02633 mPa·s
423.15 K, 21034 kPa | 240.207 kg/m3 and 240.204 kg/m3 | 0.0287 mPa·s
423.15 K, 23414 kPa | 259.265 kg/m3 | 0.03119 mPa·s
423.15 K, 23415 kPa | 259.275 kg/m3 | 0.0312 mPa·s
423.15 K, 26527 kPa | 280.132 kg/m3 | 0.03425 mPa·s
423.15 K, 26529 kPa | 280.144 kg/m3 | 0.03424 mPa·s
423.15 K, 30162 kPa | 300.101 kg/m3 | 0.03757 mPa·s
423.15 K, 30174 kPa | 300.162 kg/m3 | 0.03757 mPa·s
423.15 K, 30181 kPa | 300.195 kg/m3 | 0.03756 mPa·s
423.15 K, 30183 kPa | 300.204 kg/m3 | 0.03758 mPa·s

Reference: the NIST ThermoML archive (doi:10.1021/je101178u)
